Source: PubChem BioAssay (NCI)
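Where inhibition never reached the appropriate level, the endpoint shown equals the highest concentration tested. Otherwise, values were interpolated linearly from a five-concentration, 48-hour dose response in 96-well plates. TGI denotes the concentration required for complete inhibition of growth.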 Where a SMILES comes first, the peptide text is derived from it. The star is where a group is joined. Cbz = O=C(OCc1ccccc1)*; NHNH2 = NN*

Experiments:
Assay in all cases: NCI-60 cell line screen, 48 h
HCC-2998 colon = test system: HCC-2998 colon
HCT-15 colon = test system: HCT-15 colon
IGROV1 ovarian = test system: IGROV1 ovarian
M14 melanoma = test system: M14 melanoma
MALME-3M melanoma = test system: MALME-3M melanoma
OVCAR-8 ovarian = test system: OVCAR-8 ovarian
TK-10 renal = test system: TK-10 renal
UACC-257 melanoma = test system: UACC-257 melanoma
A498 renal = test system: A498 renal
SW-620 colon = test system: SW-620 colon

Structure (SMILES)	TGI (HCC-2998 colon) [µM]	TGI (HCT-15 colon) [µM]	TGI (IGROV1 ovarian) [µM]	TGI (M14 melanoma) [µM]	TGI (MALME-3M melanoma) [µM]	TGI (OVCAR-8 ovarian) [µM]	TGI (TK-10 renal) [µM]	TGI (UACC-257 melanoma) [µM]	TGI (A498 renal) [µM]	TGI (SW-620 colon) [µM]
CCCN(CCC)c1c([N+](=O)[O-])cc(C(=O)N(CCO)CCO)cc1[N+](=O)[O-]	> 100	> 100	> 100	> 100	> 100	> 100	> 100	> 100		
NC(=Nc1cccc(Cl)c1)c1ccccc1N	> 100	> 100	> 100	> 100	> 100	> 100	> 100	> 100	> 100	> 100
CCOC(=O)CCC(NC(=O)OCc1ccccc1)C(=O)NC(CCC(=O)OCC)C(=O)NN (configuration not stated) (Cbz-Glu(OEt)-Glu(OEt)-NHNH2; configuration not given here)	> 100	> 100	> 100	> 100	> 100	> 100	> 100	> 100	> 100	> 100
CNC(=O)OC(COC)CN1CCN(c2ccccc2C)CC1 (configuration not stated)	> 10	> 10	> 10	> 10	> 10	> 10	> 10	> 10	> 10	> 10
COc1ccc(C(=O)N/N=C/c2c(C)n(C)n(-c3ccccc3)c2=O)cc1	> 100	> 100	> 100	> 100	> 100	> 100	> 100	> 100	> 100	> 100
CCCN1C(=O)/C(=C\c2ccc(OC)c(OC)c2)SC1=Nc1ccccc1	> 100	> 100	> 100	> 100	> 100	> 100	74.1	> 100	> 100	> 100
O=C1CCCCC/C1=C\c1ccccc1	> 100	> 100	> 100	> 100	> 100		> 100	> 100	> 100	> 100
COc1cc2ccc1OCc1cccc(n1)COc1ccc(cc1OC)C=NCCNCCNCCN=C2	> 100	> 100	> 100	> 100	> 100	> 100	> 100	> 100	> 100	> 100
COC(=O)[C@@H]1CC(C(CN)c2cn(C(=O)OC(C)(C)C)c3ccccc23)C(=O)N1C(=O)OC(C)(C)C (some centres not stated)		> 100	58.1	> 100	54.1	55.8	> 100	32.2	37.3	> 100
N#CCN(CC#N)C1CC=CCC1N(CC#N)CC#N (configuration not stated)		> 100	> 100	> 100	> 100	> 100	> 100	> 100		> 100
S=C(N1CCN(c2cccc(Cl)c2)CC1)N1CCN(c2cccc(Cl)c2)CC1	36.1	> 100	> 100	> 100	71.4	> 100	> 100	> 100		> 100
Nc1ccc(-c2nc3ccccc3s2)cc1C#Cc1ccccc1		38.2	28.4	30.6	28.5	42.4	30.3	31.3	42.5	34.7
CC1(C)CC(=O)c2c(nc3c(ccc4ccccc43)c2-c2ccc(NC(=O)CCCCC(=O)Nc3ccc(-c4c5c(nc6c4ccc4ccccc46)CC(C)(C)CC5=O)cc3)cc2)C1		50.9	37.5	> 100		98.4	> 100	> 100		> 100
CCOC(=O)C(C)c1nc2ccc(C(F)(F)F)cc2[nH]c1=O (configuration not stated)	> 100	> 100		> 100	> 100	> 100	> 100	> 100	> 100	> 100
CCn1c(=O)c2nc(SC)sc2n(-c2ccccc2)c1=O	> 100	> 100	> 100	> 100	> 100	> 100	> 100	> 100		> 100
C=CCOc1ccccc1C1(O)c2ccccc2C2=NCCCN21 (configuration not stated)	30.3	> 100	44.7	39.8		34.6	> 100	> 100	> 100	> 100
N#Cc1c(-c2ccc(Cl)cc2)c2c(N=Nc3c(O)ccc4ccccc34)[nH]nc2[nH]c1=O	0.89	2.09	1.14	0.563	0.944	1.21	1.8		0.468	2.31
O=S(=O)(O)c1ccc2c(N=Nc3ccc(Cl)cc3)c(O)ccc2c1		> 100	> 100	> 100	> 100	> 100	> 100	> 100	> 100	> 100
CC1C2=C(CCCC2=O)N(c2ccc(Cl)cc2)C2=C1C(=O)CCC2	> 100	> 100	> 100	> 100		> 100	> 100		> 100	> 100
CN(C)c1cccc2c1C(=O)C=CC21CCc2ccc(N(C)C)c3c(N(C)C)ccc1c23 (configuration not stated)			31.2	29.1	24.4	53.2	28.1	25.1	15.3	35.6
Cc1cccc(C)c1Nc1nc(C)c(C(=O)CC(=O)C(=O)Nc2c(C(C)C)cccc2C(C)C)s1	> 100	> 100	> 100	> 100		> 100	> 100	> 100		> 100
CCCC1(CCC)c2cc(/C=N\O)ccc2-c2ccc(-c3ccc(C(C)(C)C)cc3)cc21	> 100	> 100	> 100	> 100	> 100	> 100	> 100	> 100		> 100
